# Results taken from patent publication US10479780B2, “Aminopyrazole derivatives” (Chugai Seiyaku Kabushiki Kaisha, priority 2015, dated 2019).
# Assays:
# Format in all cases: biochemical
# human Yes1 enzyme = target: T1, human Yes1 enzyme (Homo sapiens, UniProt P07947); assay: Yes1 enzyme inhibitory activity (time-resolved fluorometry, biotinylated peptide phosphorylation); conditions: read-out: YES_IC50
# T1 construct: made in house
# Procedure, shortened: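 Inhibition was expressed against a compound-free control to give IC50, using TR-FRET read-out (Eu-cryptate anti-pTyr antibody, streptavidin-XL665).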
# human Src enzyme = target: T2, human Src enzyme (Homo sapiens, UniProt P12931); assay: Src enzyme inhibitory activity (time-resolved fluorometry, biotinylated peptide phosphorylation); conditions: read-out: SRC_IC50
# T2 construct: purchased Carna Biosciences, Inc. 08-173
# T2 sequence (P12931 whole entry): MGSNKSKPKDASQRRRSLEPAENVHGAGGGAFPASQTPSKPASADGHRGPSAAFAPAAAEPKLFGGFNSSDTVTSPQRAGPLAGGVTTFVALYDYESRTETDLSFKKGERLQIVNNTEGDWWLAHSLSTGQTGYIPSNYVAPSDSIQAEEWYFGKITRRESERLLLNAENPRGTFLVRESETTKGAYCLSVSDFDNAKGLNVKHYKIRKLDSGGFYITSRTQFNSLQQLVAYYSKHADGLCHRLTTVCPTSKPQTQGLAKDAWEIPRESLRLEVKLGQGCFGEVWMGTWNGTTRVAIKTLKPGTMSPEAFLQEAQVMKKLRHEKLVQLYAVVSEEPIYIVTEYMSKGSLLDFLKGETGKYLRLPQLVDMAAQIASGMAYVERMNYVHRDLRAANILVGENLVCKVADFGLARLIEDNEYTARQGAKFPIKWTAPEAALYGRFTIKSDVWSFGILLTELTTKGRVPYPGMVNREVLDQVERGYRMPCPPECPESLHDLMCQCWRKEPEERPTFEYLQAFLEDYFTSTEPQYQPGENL
# Procedure, shortened: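 Compounds were tested for blocking tyrosine phosphorylation of a biotinylated peptide substrate by recombinant human Src. Phosphorylated product was quantified by time-resolved fluorometry using europium cryptate and XL665 conjugates, and IC50 was calculated against the compound-free control.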
# human Lck enzyme = target: T3, human Lck enzyme (Homo sapiens, UniProt P06239); assay: Lck enzyme inhibitory activity (time-resolved fluorometry, biotinylated peptide phosphorylation); conditions: read-out: LCK_IC50
# T3 construct: purchased Carna Biosciences, Inc. 08-170
# T3 sequence (P06239 whole entry): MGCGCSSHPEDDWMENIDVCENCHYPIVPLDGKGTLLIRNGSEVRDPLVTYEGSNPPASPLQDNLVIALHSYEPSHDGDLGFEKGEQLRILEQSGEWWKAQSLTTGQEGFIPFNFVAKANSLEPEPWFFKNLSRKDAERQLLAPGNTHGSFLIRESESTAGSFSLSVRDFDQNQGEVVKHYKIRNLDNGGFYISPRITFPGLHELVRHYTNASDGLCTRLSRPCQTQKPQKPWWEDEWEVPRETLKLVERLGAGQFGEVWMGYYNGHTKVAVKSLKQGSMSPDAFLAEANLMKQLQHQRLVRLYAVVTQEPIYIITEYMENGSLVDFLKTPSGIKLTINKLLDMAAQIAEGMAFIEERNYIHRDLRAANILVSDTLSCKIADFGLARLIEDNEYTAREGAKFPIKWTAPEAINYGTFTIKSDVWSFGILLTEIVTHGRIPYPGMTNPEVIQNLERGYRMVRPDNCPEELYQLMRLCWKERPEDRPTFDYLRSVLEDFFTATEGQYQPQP
# Procedure, shortened: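 Readout pairs a europium cryptate-labelled anti-phosphotyrosine antibody with XL665-streptavidin, measured by time-resolved fluorescence. IC50 derived from percent inhibition against untreated controls.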
# T1 sequence (P07947 whole entry): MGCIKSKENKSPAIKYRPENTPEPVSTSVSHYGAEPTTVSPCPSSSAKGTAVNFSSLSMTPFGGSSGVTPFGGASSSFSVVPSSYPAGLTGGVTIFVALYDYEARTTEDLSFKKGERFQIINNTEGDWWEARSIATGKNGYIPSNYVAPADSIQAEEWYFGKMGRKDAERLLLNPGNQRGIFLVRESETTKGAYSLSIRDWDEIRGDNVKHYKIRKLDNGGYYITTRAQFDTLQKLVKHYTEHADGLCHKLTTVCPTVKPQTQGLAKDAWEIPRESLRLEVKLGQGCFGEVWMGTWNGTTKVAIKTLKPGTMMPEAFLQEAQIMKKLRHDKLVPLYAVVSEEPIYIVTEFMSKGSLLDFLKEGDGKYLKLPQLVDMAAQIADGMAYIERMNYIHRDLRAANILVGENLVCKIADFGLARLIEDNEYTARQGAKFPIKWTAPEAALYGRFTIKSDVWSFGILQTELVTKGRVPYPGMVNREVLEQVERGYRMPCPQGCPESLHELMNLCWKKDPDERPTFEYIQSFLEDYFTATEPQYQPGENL
IC50 (human Yes1 enzyme),IC50 (human Src enzyme),IC50 (human Lck enzyme),Structure (SMILES)
2.4 nM,350 nM,74 nM,"Cc1cc(-n2ncc(C(=O)c3cc4cc(OC(F)F)c(N5CCN(S(C)(=O)=O)CC5)cc4[nH]3)c2N)ccc1Oc1ccccc1F [Example 5-1-175, [5-amino-1-[4-(2-fluorophenoxy)-3-methylphenyl]pyrazol-4-yl]-[5-(difluoromethoxy)-6-(4-methylsulfoNylpiperazin-1-yl)-1H-indol-2-yl]methanone]"
1 nM,79 nM,11 nM,"Cc1cc(-n2ncc(C(=O)c3cc4cc(OC5CCN(C(C)C)CC5)c(N5CCN(S(C)(=O)=O)CC5)cc4[nH]3)c2N)ccc1Oc1ccccc1F [Example 5-1-176, [5-amino-1-[4-(2-fluorophenoxy)-3-methylphenyl]pyrazol-4-yl]-[6-(4-methylsulfonylpiperazin-1-yl)-5-(1-propan-2-ylpiperidin-4-yl)oxy-1H-indol-2-yl]methanone]"
2.4 nM,340 nM,82 nM,"Cc1cc(-n2ncc(C(=O)c3cc4cc(OC(F)F)c(N5CCOC5=O)cc4[nH]3)c2N)ccc1Oc1ccccc1F [Example 5-1-177, 3-[2-[5-amino-1-[4-(2-fluorophenoxy)-3-methylphenyl]pyrazole-4-carbonyl]-5-(difluoromethoxy)-1H-indol-6-yl]-1,3-oxazolidin-2-one]"
0.37 nM,48 nM,3.4 nM,"Cc1cc(-n2ncc(C(=O)c3cc4cc(OC5CCN(C(C)C)CC5)c(N5CCOC5=O)cc4[nH]3)c2N)ccc1Oc1ccccc1F [Example 5-1-178, 3-(2-(5-amino-1-(4-(2-fluorophenoxy)-3-methylphenyl)-1H-pyrazole-4-carbonyl)-5-((1-isopropylpiperidin-4-yl)oxy)-1H-indol-6-yl)oxazolidin-2-one]"
4 nM,810 nM,180 nM,"Cc1cc(-n2ncc(C(=O)c3cc4cc(OC(F)F)c(N5C(=O)NC(C)(C)C5=O)cc4[nH]3)c2N)ccc1Oc1ccccc1F [Example 5-1-179, 3-[2-[5-amino-1-[4-(2-fluorophenoxy)-3-methylphenyl]pyrazole-4-carbonyl]-5-(difluoromethoxy)-1H-indol-6-yl]-5,5-dimethylimidazolidine-2,4-dione]"
0.35 nM,95 nM,6.3 nM,"Cc1cc(-n2ncc(C(=O)c3cc4cc(OC5CCN(C(C)C)CC5)c(N5C(=O)NC(C)(C)C5=O)cc4[nH]3)c2N)ccc1Oc1ccccc1F [Example 5-1-180, 3-[2-[5-amino-1-[4-(2-fluorophenoxy)-3-methylphenyl]pyrazole-4-carbonyl]-5-(1-propan-2-ylpiperidin-4-yl)oxy-1H-indol-6-yl]-5,5-dimethylimidazolidine-2,4-dione]"
1.4 nM,390 nM,41 nM,"Cc1cc(-n2ncc(C(=O)c3cc4cc(OC(F)F)c(N5CCC(N6CCOCC6)CC5)cc4[nH]3)c2N)ccc1Oc1ccccc1F [Example 5-1-181, [5-amino-1-[4-(2-fluorophenoxy)-3-methylphenyl]pyrazol-4-yl]-[5-(difluoromethoxy)-6-(4-morpholin-4-ylpiperidin-1-yl)-1H-indol-2-yl]methanone]"
0.17 nM,24 nM,2.7 nM,"Cc1cc(-n2ncc(C(=O)c3cc4cc(OC5CCN(C(C)C)CC5)c(N5CCC(N6CCOCC6)CC5)cc4[nH]3)c2N)ccc1Oc1ccccc1F [Example 5-1-182, [5-amino-1-[4-(2-fluorophenoxy)-3-methylphenyl]pyrazol-4-yl]-[6-(4-morpholin-4-ylpiperidin-1-yl)-5-(1-propan-2-ylpiperidin-4-yl)oxy-1H-indol-2-yl]methanone]"
0.44 nM,4.9 nM,2.8 nM,"Cc1cc(Oc2c(F)cccc2F)ncc1-n1ncc(C(=O)c2cc3cc(OC4CCN(C(C)C)CC4)c(N)cc3[nH]2)c1N [Example 5-1-183, [5-amino-1-[6-(2,6-difluorophenoxy)-4-methylpyridin-3-yl]pyrazol-4-yl]-[6-amino-5-(1-propan-2-ylpiperidin-4-yl)oxy-1H-indol-2-yl] methanone]"
